In patent US11236045B2, “Substituted sulfoximine compounds” (CADILA HEALTHCARE LIMITED, priority 2017, dated 2022):

Each compound was assayed on IL-1β (assay: In vitro IL-1β inhibition in PMA-differentiated, LPS-primed, ATP-stimulated THP1 cells). Conditions: Homo sapiens, THP-1; THP1 monocytes differentiated with PMA, primed with 500 ng/ml LPS 4 hrs, compound 30 min, 5 mM ATP 1 hr; IL-1b in supernatant; read-out: in vitro IL-1β inhibitory activity IC50.
Format: cell-based
Method: THP1 ([…]) monocytes were differentiated with PMA (Phorbol 12-myristate 13-acetate) (100 ng/ml) and incubated at 37° C. for 20 h in presence of 5% CO2. 2×10^5 differentiated cells were plated per well of 96 well tissue culture plates. The cells were primed using 500 ng/ml Lipopolysaccharide and incubating for 4 hrs under the same condition. The cells were then treated with various concentrations of the compounds for 30 min followed by treatment with 5 mM ATP for 1 hr. The supernatants were collected and analysed by IL-1b (Mabtech Cat #3415-1H-20) or TNF-a (Mabtech; Cat #3510-1H-20) detection kit. The data were analyzed using GraphPad Prism V7.0. Dose Response Curve (DRC) was constructed to determine the IC50 value by fitting percentage cell survival data to the GraphPad Prism using nonlinear regression analysis.

| SMILES | IC50 [µM] |
| --- | --- |
| CC(C)(O)c1ccc(S(=O)(=NC#N)NC(=O)Nc2c3c(cc4c2CCC4)CCC3)cc1 (centres unmarked) [Example 17, N′-cyano-N-((1,2,3,5,6,7-hexahydro-s-indacen-4-yl)carbamoyl)-4-(2-hydroxypropan-2-yl)benzenesulfonimidamide] | 0.012 |
| N#CN=S(=O)(NC(=O)Nc1c2c(cc3c1CCC3)CCC2)c1cccc([N+](=O)[O-])c1 (centres unmarked) [Example 18, N′-cyano-N-((1,2,3,5,6,7-hexahydro-s-indacen-4-yl)carbamoyl)-3-nitrobenzenesulfonimidamide] | 0.015 |
| COc1ccc(S(=O)(=NC#N)NC(=O)Nc2c3c(cc4c2CCC4)CCC3)cc1 (centres unmarked) [Example 19, N′-cyano-N-((1,2,3,5,6,7-hexahydro-s-indacen-4-yl)carbamoyl)-4-methoxybenzenesulfonimidamide] | 0.023 |
| N#CN=S(=O)(NC(=O)Nc1c2c(cc3c1CCC3)CCC2)c1ccc(F)cc1 (centres unmarked) [Example 21, N′-cyano-4-fluoro-N-((1,2,3,5,6,7-hexahydro-s-indacen-4-yl)carbamoyl)benzenesulfonimidamide] | 0.062 |
| COc1ccc(S(=O)(=NC#N)NC(=O)Nc2c3c(cc4c2CCC4)CCC3)cn1 (centres unmarked) [Example 24, N′-cyano-N-((1,2,3,5,6,7-hexahydro-s-indacen-4-yl)carbamoyl)-6-methoxypyridine-3-sulfonimidamide] | 0.034 |
| N#CN=S(=O)(NC(=O)Nc1c2c(cc3c1CCC3)CCC2)c1ccc(Cl)cc1 (centres unmarked) [Example 26, 4-chloro-N′-cyano-N-((1,2,3,5,6,7-hexahydro-s-indacen-4-yl)carbamoyl)benzenesulfonimidamide] | 0.023 |
| N#CN=S(=O)(NC(=O)Nc1c2c(cc3c1CCC3)CCC2)c1ccc(Br)cc1 (centres unmarked) [Example 27, 4-bromo-N′-cyano-N-((1,2,3,5,6,7-hexahydro-s-indacen-4-yl)carbamoyl)benzenesulfonimidamide] | 0.027 |
| N#CN=S(=O)(NC(=O)Nc1c2c(cc3c1CCC3)CCC2)c1ccc(C(F)(F)F)cc1 (centres unmarked) [Example 29, N′-cyano-N-((1,2,3,5,6,7-hexahydro-s-indacen-4-yl)carbamoyl)-4-(trifluoromethyl)-benzenesulfonimidamide] | 0.032 |
| CC(C)(O)c1cccc(S(=O)(=NC#N)NC(=O)Nc2c3c(cc4c2CCC4)CCC3)c1 (centres unmarked) [Example 34, N′-cyano-N-((1,2,3,5,6,7-hexahydro-s-indacen-4-yl)carbamoyl)-3-(2-hydroxypropan-2-yl)benzenesulfonimidamide] | 0.003 |
| N#CN=S(=O)(NC(=O)Nc1c2c(cc3c1CCC3)CCC2)c1ccc(C2(O)COC2)cc1 (centres unmarked) [Example 35, N′-cyano-N-((1,2,3,5,6,7-hexahydro-s-indacen-4-yl)carbamoyl)-4-(3-hydroxyoxetan-3-yl)benzenesulfonimidamide] | 0.013 |
| C=C(C)c1coc(S(=O)(=NC#N)NC(=O)Nc2c3c(cc4c2CCC4)CCC3)c1 (centres unmarked) [Example 36, N′-cyano-N-((1,2,3,5,6,7-hexahydro-s-indacen-4-yl)carbamoyl)-4-(prop-1-en-2-yl)furan-2-sulfonimidamide] | 0.032 |
| N#CN=S(=O)(NC(=O)Nc1c2c(cc3c1CCC3)CCC2)c1ccc(Br)s1 (centres unmarked) [Example 37, 5-bromo-N′-cyano-N-((1,2,3,5,6,7-hexahydro-s-indacen-4-yl)carbamoyl)thiophene-2-sulfonimidamide] | 0.0056 |
| COc1cccc(S(=O)(=NC#N)NC(=O)Nc2c3c(cc4c2CCC4)CCC3)c1 (centres unmarked) [Example 38, N′-cyano-N-((1,2,3,5,6,7-hexahydro-s-indacen-4-yl)carbamoyl)-3-methoxybenzenesulfonimidamide] | 0.017 |

Other lines, results leading:

| IC50 [µM] | SMILES |
| --- | --- |
| 0.0033 | CC(C)(O)c1coc(S(=O)(=NC#N)NC(=O)Nc2c3c(cc4c2CCC4)CCC3)c1 (centres unmarked) [Example 39, N′-cyano-N-((1,2,3,5,6,7-hexahydro-s-indacen-4-yl)carbamoyl)-4-(2-hydroxypropan-2-yl)furan-2-sulfonimidamide] |
| 0.013 | N#CN=S(=O)(NC(=O)Nc1c2c(cc3c1CCC3)CCC2)c1ccc2c(c1)OCCO2 (centres unmarked) [Example 40, N′-cyano-N-((1,2,3,5,6,7-hexahydro-s-indacen-4-yl)carbamoyl)-2,3-dihydrobenzo[b][1,4]dioxine-6-sulfonimidamide] |
| 0.0048 | CC(C)(O)c1ccc(S(=O)(=NC#N)NC(=O)Nc2c3c(cc4c2CCC4)CCC3)s1 (centres unmarked) [Example 41, N′-cyano-N-((1,2,3,5,6,7-hexahydro-s-indacen-4-yl)carbamoyl)-5-(2-hydroxypropan-2-yl)thiophene-2-sulfonimidamide] |
| 0.0024 | Cc1ccc(F)c(S(=O)(=NC#N)NC(=O)Nc2c3c(cc4c2CCC4)CCC3)c1 (centres unmarked) [Example 42, N′-cyano-2-fluoro-N-((1,2,3,5,6,7-hexahydro-s-indacen-4-yl)carbamoyl)-5-methylbenzene-sulfonimidamide] |
| 0.027 | N#CN=S(=O)(NC(=O)Nc1c2c(cc3c1CCC3)CCC2)c1cccc(C(O)(C(F)(F)F)C(F)(F)F)c1 (centres unmarked) [Example 43, N′-cyano-3-(1,1,1,3,3,3-hexafluoro-2-hydroxypropan-2-yl)-N-((1,2,3,5,6,7-hexahydro-s-indacen-4-yl)carbamoyl)benzenesulfonimidamide] |
| 0.063 | N#CN=S(=O)(NC(=O)Nc1c2c(cc3c1CCC3)CCC2)c1cc(F)cc(F)c1 (centres unmarked) [Example 44, N′-cyano-3,5-difluoro-N-((1,2,3,5,6,7-hexahydro-s-indacen-4-yl)carbamoyl)benzenesulfonimidamide] |
| 0.023 | N#CN=S(=O)(NC(=O)Nc1c2c(cc3c1CCC3)CCC2)c1ccc(F)cc1F (centres unmarked) [Example 45, N′-cyano-2,4-difluoro-N-((1,2,3,5,6,7-hexahydro-s-indacen-4-yl)carbamoyl)benzenesulfonimidamide] |
| 0.0035 | N#CN=S(=O)(Cc1ccccc1)NC(=O)Nc1c2c(cc3c1CCC3)CCC2 (centres unmarked) [Example 48, N′-cyano-N-((1,2,3,5,6,7-hexahydro-s-indacen-4-yl)carbamoyl)-1-phenylmethanesulfonimidamide] |
| 0.019 | N#CN=S(=O)(NC(=O)Nc1c2c(cc3c1CCC3)CCC2)c1cccs1 (centres unmarked) [Example 51, N′-cyano-N-((1,2,3,5,6,7-hexahydro-s-indacen-4-yl)carbamoyl)thiophene-2-sulfonimidamide] |
| 0.0044 | COc1ccc(S(=O)(=NC#N)NC(=O)Nc2c3c(cc4c2CCC4)CCC3)cc1OC (centres unmarked) [Example 52, N′-cyano-N-((1,2,3,5,6,7-hexahydro-s-indacen-4-yl)carbamoyl)-3,4-dimethoxybenzene-sulfonimidamide] |
| 0.045 | Cc1cccc(S(=O)(=NC#N)NC(=O)Nc2c3c(cc4c2CCC4)CCC3)n1 (centres unmarked) [Example 53, N′-cyano-N-((1,2,3,5,6,7-hexahydro-s-indacen-4-yl)carbamoyl)-6-methylpyridine-2-sulfonimidamide] |
| 0.038 | N#CN=S(=O)(NC(=O)Nc1c2c(cc3c1CCC3)CCC2)c1cccc(F)c1 (centres unmarked) [Example 58, N′-cyano-3-fluoro-N-((1,2,3,5,6,7-hexahydro-s-indacen-4-yl)carbamoyl)benzenesulfonimidamide] |
| 0.0078 | CC(C)(O)c1cc(S(=O)(=NC#N)NC(=O)Nc2c3c(cc4c2CCC4)CCC3)ccc1F (centres unmarked) [Example 63, N′-cyano-4-fluoro-N-((1,2,3,5,6,7-hexahydro-s-indacen-4-yl)carbamoyl)-3-(2-hydroxypropan-2-yl)benzenesulfonimidamide] |
| 0.0077 | CC(C)(O)c1ccc(F)c(S(=O)(=NC#N)NC(=O)Nc2c3c(cc4c2CCC4)CCC3)c1 (centres unmarked) [Example 64, N′-cyano-2-fluoro-N-((1,2,3,5,6,7-hexahydro-s-indacen-4-yl)carbamoyl)-5-(2-hydroxypropan-2-yl)benzenesulfonimidamide] |
| 0.00126 | CC(C)(O)c1cncc(S(=O)(=NC#N)NC(=O)Nc2c3c(cc4c2CCC4)CCC3)c1 (centres unmarked) [Example 65, N′-cyano-N-((1,2,3,5,6,7-hexahydro-s-indacen-4-yl)carbamoyl)-5-(2-hydroxypropan-2-yl)pyridine-3-sulfonimidamide] |
| 0.004 | N#CN=S(=O)(Cc1ccc(C#N)cc1)NC(=O)Nc1c2c(cc3c1CCC3)CCC2 (centres unmarked) [Example 66, N′-cyano-1-(4-cyanophenyl)-N-((1,2,3,5,6,7-hexahydro-s-indacen-4-yl)carbamoyl)-methanesulfonimidamide] |
